Measurements taken from US7160915B2, “N-methyl-substituted benzamidazoles” (Warner-Lambert Company, LLC, priority 2003, dated 2007).

Tested on: phosphorylation of MAP kinase (ERK) in murine colon 26 (C26) carcinoma cells
Experiment: Cellular assay for measuring MEK inhibition: inhibition of ERK phosphorylation, C26CPA1
Assay type: cell-based
Conditions: Mus musculus, 1 h, C26 cells treated one hour with test compound
Experimental: (§1) Cellular Assay for Measuring MEK Inhibition
(§2) MEK inhibitors were evaluated by determining their ability to inhibit phosphorylation of MAP kinase (ERK) in murine colon 26 (C26) carcinoma cells. Since ERK1 and ERK2 represent the only known substrates for MEK1 and MEK2, the measurement of inhibition of ERK phosphorylation in cells provides direct read out of cellular MEK inhibition by the compounds of the invention. Detection of phosphorylation of ERK was carried out either by Western blot or ELISA format. Briefly, the assays involve treatment of exponentially growing C26 cells with varying concentrations of the test compound (or vehicle control) for one hour at 35° C. For Western blot assay, cells were rinsed free of compound/vehicle and lysed in a solution containing 50 mM NaCl, 50 mM glycerol phosphate, 10 mM HEPES, pH […], 1% Triton X-100, 1 mM Na3VO4, 100 μM PMSF, 10 μM leupeptin and 10 μM pepstatin. Supernatants were then subjected to gel electrophoresis and hybridized to a primary antibody recognizing dually phosphorylated ERK1 and ERK2. To evaluate total MAPK levels, blots were subsequently ‘stripped’ and re-probed with a 1:1 mixture of polyclonal antibodies recognizing unphosphorylated ERK1 and ERK2. For pERK ELISA assay, pERK TiterZyme Enzyme immunometric Assay kits were acquired from Assay Designs, Inc (Ann Arbor, Mich.). Briefly, cells were harvested in lysis solution containing 50 mM β-glycerophosphate, 10 mM HEPES, pH5.4, 50 mM NaCl, 2mM EDTA and 1% SDS and protein lysates were diluted 1:15 with supplied Assay buffer prior to the execution of the assay. The subsequent steps were carried out essentially as recommended by the manufacturer.
(§3) The inhibition data generated by the above protocol is disclosed in Table I. If several concentrations of inhibitor were tested, IC50 values (the concentration which gives 50% inhiition) were determined graphically from the dose response curve for % inhibition. Otherwise, percent inhibitions at measured concentrations are reported.
(§4) Table I. Cellular Inhibition of ERK Phosphorylation by Compounds of the Invention

Going from Cn1cnc2c(F)c(Nc3ccc(I)cc3F)c(-c3nnc(NCCO)o3)cc21 [Compound 6] to Cc1cc(I)ccc1Nc1c(-c2nnc(N)o2)cc2c(ncn2C)c1F [Compound 21], the IC50 falls from 569 nM to 268 nM (2.1-fold). The second is the more potent here.

Going from Cc1cc(I)ccc1Nc1c(C(=O)NOCC2CC2)cc2c(ncn2C)c1F [Compound 9] to CCCn1cnc2c(F)c(Nc3ccc(I)cc3C)c(C(=O)NOCC3CC3)cc21 [Compound 14], the IC50 rises from 12 nM to 28 nM (2.3-fold). The first is the more potent here.

Compared with COC(=O)c1cc2c(ncn2C)c(F)c1Nc1ccc(I)cc1C [Compound 11], Cc1cc(I)ccc1Nc1c(C(N)=O)cc2c(ncn2C)c1F [Compound 22] is 24-fold lower in IC50: 1000 nM for the first, 41 nM for the second.

Going from COC(=O)Cn1cnc2c(F)c(Nc3ccc(I)cc3C)c(C(=O)NOCC3CC3)cc21 [Compound 12] to Cc1cc(I)ccc1Nc1c(C(=O)NOCC2CC2)cc2c(ncn2CCCO)c1F [Compound 16], the IC50 rises from 22 nM to 110 nM (5-fold).

First: Cc1cc(I)ccc1Nc1c(C(=O)NOCCO)cc2c(ncn2C)c1F [Compound 13]
Second: Cn1cnc2c(F)c(Nc3ccc(I)cc3F)c(C(=O)NOCCO)cc21 [Compound 32]
The IC50 of the first is 1.8-fold higher: 3.4 nM for the first, 1.9 nM for the second.

First: Cc1cc(I)ccc1Nc1c(C(=O)NOCC(O)CO)cc2c(ncn2C)c1F (stereo not shown) [Compound 15]
Second: Cn1cnc2c(F)c(Nc3ccc(I)cc3F)c(C(=O)NOC[C@H](O)CO)cc21 [Compound 34]
The IC50 of the first is 3.9-fold higher: 86 nM for the first, 22 nM for the second. The second is the more potent here.

First: CNCCONC(=O)c1cc2c(ncn2C)c(F)c1Nc1ccc(I)cc1C [Compound 20]
Second: Cc1cc(I)ccc1Nc1c(CO)cc2c(ncn2C)c1F [Compound 28]
The IC50 of the first is 3-fold lower: 190 nM for the first, 566 nM for the second. The first is the more potent here.

First: Cn1cnc2c(F)c(Nc3ccc(I)cc3F)c(C(N)=O)cc21 [Compound 23]
Second: Cn1cnc2c(F)c(Nc3ccc(I)cc3F)c(C(=O)NO)cc21 [Compound 30]
The IC50 of the first is 5-fold higher: 2 nM for the first, 0.4 nM for the second.

Compared with Cn1cnc2c(F)c(Nc3ccc(I)cc3F)c(C(=O)NCC(O)CO)cc21 (stereo not shown) [Compound 24], Cn1cnc2c(F)c(Nc3ccc(I)cc3F)c(C(=O)NCCO)cc21 [Compound 25] is 4.6-fold lower in IC50: 556 nM for the first, 122 nM for the second. The second is the more potent here.

Compared with Cn1cnc2c(F)c(Nc3ccc(I)cc3F)c(C(=O)NCCCO)cc21 [Compound 26], Cn1cnc2c(F)c(Nc3ccc(I)cc3F)c(C(=O)NCCCN)cc21 [Compound 31] is 6.7-fold higher in IC50: 150 nM for the first, 1000 nM for the second.

Going from Cc1cc(I)ccc1Nc1c(C(=O)NOCC2CC2)cc2c(ncn2CC(O)CO)c1F (stereo not shown) [Compound 35] to Cn1cnc2c(F)c(Nc3ccc(I)cc3F)c(CO)cc21 [Compound 40], the IC50 rises from 8.85 nM to 80 nM (9-fold). The first is the more potent here.

With CCc1ccc(Nc2c(C(=O)OC)cc3c(ncn3C)c2F)c(F)c1 [Compound 38] the IC50 was 230 nM.

Tested on: phosphorylation of MAP kinase (ERK) in murine colon 26 (C26) carcinoma cells
Experiment: Cellular assay for measuring MEK inhibition: inhibition of ERK phosphorylation, C26ELSA (pERK ELISA)
Assay type: cell-based
Conditions: Mus musculus, 1 h, C26 cells treated one hour with test compound
Experimental: as §1, §2, §3, §4

Compared with Cn1cnc2c(F)c(Nc3ccc(I)cc3F)c(C(=O)NCCCO)cc21 [Compound 1], Cn1cnc2c(F)c(Nc3ccc(I)cc3F)c(C(N)=O)cc21 [Compound 23] is 65-fold lower in IC50: 550 nM for the first, 8.42 nM for the second. The second is the more potent here.

With CCc1ccc(Nc2c(C(N)=O)cc3c(ncn3C)c2F)c(F)c1 [Compound 42] the IC50 was 280 nM.

Tested on: not given
Experiment: not given
Conditions: not given

In the case of Cn1cnc2c(F)c(Nc3ccc(I)cc3F)c(C(N)=O)cc21 [Example 2], the melting point is reported as 265 to 268 °C (dec.).

Work on Cc1cc(I)ccc1Nc1c(-c2nnc(N)o2)cc2c(ncn2C)c1F [Example 4, [6-(5-amino-[1,3,4]oxadiazol-2-yl)-4-fluoro-1-methyl-1H-benzoimidazol-5-yl]-(4-iodo-2-methyl-phenyl)-amine] yielded a melting point of 258 to 260 °C.
